Where a name gives a salt, the structure may show the parent alone.
What was measured:
Type in all cases: physicochemical
[1] = XRPD before and after DVS (form change); conditions: state of sample post DVS
[2] = DVS water uptake / hygroscopicity; conditions: for hygroscopicity (in words): conclusion from DVS where run
[3] = stressing at 40° C./75% RH (form change)
[4] = appearance under ambient condition; conditions: wet solid under ambient condition; not tested by TGA/DSC

SMILES | form change after DVS [1] | hygroscopicity (in words) [2] | water uptake (DVS) ([2]; from 0% to 80% RH) | water uptake (DVS) ([2]; at 25° C./80% RH) | form change after stressing [3] | water uptake (DVS) ([2]; from 50% RH to 80% RH at 25° C.) | hygroscopicity (in words) [4]
CNCc1cnn(-c2cc(Nc3nc(C)cc(NC)n3)ccc2OC)c1 [Compound 6 Hydrochloride Salt Type A] | Form change was observed | very hygroscopic | around 19.4% | – | – | – | –
CNc1cc(C2CCOCC2)c2cc(OC)c(OCCCN3CCCC3)cc2n1 [Compound 2 Freebase Type A] | No form change | slightly hygroscopic | around 1.0% | – | – | – | –
CNc1cc(C)nc(Nc2ccc(OC)c(CNCCN3CCCC3)c2)n1 [Compound 3 Freebase Type A] | No form change | hygroscopic | around 12.9% | – | – | – | –
CNCc1cnn(-c2cc(Nc3nc(C)cc(NC)n3)ccc2OC)c1 [Compound 6 freebase Type A] | No form change | hygroscopic | around 4.4% | – | – | – | –
CNc1cc(C)nc(Nc2ccc(OC)c(OC[C@H](O)CN3CCCC3)c2)n1 [Compound 4R Succinate Salt Type A] | No form change | hygroscopic | around 9.6% | – | – | – | –
CNc1cc(C)nc(Nc2ccc(OC)c(OC[C@H](O)CN3CCCC3)c2)n1 [Compound 4R Hydrochloride Salt Type B] | No form change | very hygroscopic | around 17.4% | – | – | – | –
CNc1cc(C)nc(Nc2ccc(OC)c(OC[C@H](O)CN3CCCC3)c2)n1 [Compound 4R Freebase Type C] | No form change | hygroscopic | around 8.7% | – | – | – | –
CNc1cc(C)nc(Nc2ccc(OC)c(OC[C@H](O)CN3CCC3)c2)n1 [Compound 5R Hippurate Salt Type A] | No significant form change | hygroscopic | – | 2.6% | – | – | –
CNc1cc(C)nc(Nc2cnc(OC)c(OC[C@@H]3CCN(C)C3)c2)n1 [Compound 1R Hydrochloride Salt Type A] | No change in XRPD pattern | hygroscopic | – | ~8% | – | – | –
CNc1cc(C)nc(Nc2ccc(OC)c(CNCCN3CCCC3)c2)n1 [Compound 3 Glycolate Salt Type B] | deliquescence | – | around 45.3% | – | – | – | –
CNc1cc(C)nc(Nc2ccc(OC)c(CNCCN3CCCC3)c2)n1 [Compound 3 Hydrochloride Salt Type A] | new hydrate form | – | – | – | – | – | –
CNc1cc(C)nc(Nc2ccc(OC)c(OC[C@H](O)CN3CCC3)c2)n1 [Compound 5R Gentisate Salt Type E] | – | – | – | – | No form change | – | –
CNCc1cnn(-c2c(OC)ccc(Nc3nc(C)cc(NC)n3)c2F)c1 [Compound 7 Fumarate Salt Type A] | – | low hygroscopicity | – | – | – | – | –
CNc1cc(C)nc(Nc2ccc(OC)c(OC[C@H](O)CN3CCCC3)c2)n1 [Compound 4R Hydrochloride Salt Type A] | change of XRPD pattern was observed | hygroscopic | – | – | – | around 4% | –
CNc1cc(C)nc(Nc2ccc(OC)c(OC[C@H](O)CN3CCC3)c2)n1 [Compound 5R Fumarate Salt Type A] | No significant form change | hygroscopic | – | 7.6% | – | – | –
CNCc1cnn(-c2c(OC)ccc(Nc3nc(C)cc(NC)n3)c2F)c1 [Compound 7 Fumarate Salt Type C] | – | – | around 1.9% | – | – | – | –
CNCc1cnn(-c2cc(Nc3nc(C)cc(NC)n3)ccc2OC)c1 [Compound 6 Glycolate Salt Type A] | – | – | – | – | – | – | high hygroscopicity
CNc1cc(C)nc(Nc2ccc(OC)c(CNCCN3CCCC3)c2)n1 [Compound 3 Hydrochloride Salt Type B] | change of XRPD pattern was observed | hygroscopic | – | 15.3% | – | – | –
CNc1cc(C)nc(Nc2ccc(OC)c(CNCCN3CCCC3)c2)n1 [Compound 3 Sulfate Sate Type A] | No significant form change | highly hygroscopic | – | 20.5% | – | – | –
CNCc1cnn(-c2cc(Nc3nc(C)cc(NC)n3)ccc2OC)c1 [Compound 6 Adipate Salt Type B] | form change from Compound 6 Adipate Salt Type B to Compound 6 Adipate Salt Type A | hygroscopic | around 8.8% | – | – | – | –

From patent publication US20220324851A1, “AMINE-SUBSTITUTED HETEROCYCLIC COMPOUNDS AS EHMT2 INHIBITORS, SALTS THEREOF, AND METHODS OF SYNTHESIS THEREOF” (Epizyme, Inc., priority 2017, published 2022)
